Source: patent US20240343733A1, “COMPOUNDS FOR TARGETING DEGRADATION OF IRAK4 PROTEINS” (BIOGEN MA INC., priority 2021, published 2024)

biological target: T1, IRAK4 (Homo sapiens, UniProt Q9NWZ3); assay: IRAK4 Degradation Assay, HiBiT Method; type: cell-based; conditions: 293T cells expressing HiBiT-tagged IRAK4, 6 hours
T1 construct: 293Tcells expressing HiBiT-tagged IRAK4 were then added into 384-well plates
T1 sequence (Q9NWZ3 1-460): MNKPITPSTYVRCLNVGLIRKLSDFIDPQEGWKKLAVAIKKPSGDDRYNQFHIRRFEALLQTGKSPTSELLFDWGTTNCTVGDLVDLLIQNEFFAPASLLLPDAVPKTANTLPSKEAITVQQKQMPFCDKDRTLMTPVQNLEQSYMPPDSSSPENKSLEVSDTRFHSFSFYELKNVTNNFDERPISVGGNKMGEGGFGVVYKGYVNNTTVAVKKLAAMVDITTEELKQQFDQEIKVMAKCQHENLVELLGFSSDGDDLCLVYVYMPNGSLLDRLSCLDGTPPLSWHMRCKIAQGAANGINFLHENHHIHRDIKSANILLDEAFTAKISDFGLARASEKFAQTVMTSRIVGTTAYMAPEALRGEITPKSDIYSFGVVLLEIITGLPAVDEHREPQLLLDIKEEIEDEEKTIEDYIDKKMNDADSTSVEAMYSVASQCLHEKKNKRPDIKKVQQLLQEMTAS
Description: Assay 1. IRAK4 Degradation Assay, HiBiT Method
Selected compounds were tested in an IRAK4 degradation assay using the HiBiT Method.
Phenol red-free Dulbecco's modified Eagle medium (DMEM) and fetal bovine serum (FBS) were purchased from Gibco (Grand Island, NY, USA). The Nano-Glo® HiBiT Lytic Assay System was purchased from Promega (Madison, WI, USA). Cell culture flasks and 384-well microplates were acquired from VWR (Radnor, PA, USA). The 293Tcell line was engineered by knocking-in a HiBiT fusion tag into the C-terminal of the IRAK4 gene in 293T cells (Synthego, Redwood City, CA, USA).
IRAK4 degradation was measured via the quantification of luminescent signals using the Nano-Glo® HiBiT Lytic Assay kit. Test compounds were added to 384-well plates in duplicate using an 11-point half-log dilution series, with the highest dose set at […]. 293Tcells expressing HiBiT-tagged IRAK4 were then added into 384-well plates at a cell density of 10,000 cells per well. The plates were kept at 37° C. with 5% CO2 for 6 hours. Cells that were treated only with DMSO served as the negative control; wells that contained only assay media served as the background control. After the 6-hour incubation, Nano-Glo® HiBiT Lytic Assay reagents were added to the cells. Luminescence was acquired using an EnVision™ Multilabel Reader (PerkinElmer, Santa Clara, CA, USA).

DC50 [nM]	Compound
100 to 500	CC(C)Oc1cc2nc([C@H]3CC[C@H](CN4CCC(c5ccc(C6(C)CCC(=O)NC6=O)cc5)CC4)CC3)cn2cc1C(=O)Nc1cccc(C(F)F)n1 (stereo partly shown) [Example 40, N-[6-(difluoromethyl)-2-pyridyl]-7-isopropoxy-2-[4-[[4-[4-(3-methyl-2,6-dioxo-3-piperidyl)phenyl]-1-piperidyl]methyl]cyclohexyl]imidazo[1,2-a]pyridine-6-carboxamide]
100 to 500	CC(C)Oc1cc2nc([C@H]3CC[C@H](CN(C)C4CCN(c5ccc(C6CCC(=O)NC6=O)cc5)CC4(F)F)CC3)cn2cc1C(=O)Nc1cccc(C(F)F)n1 (stereo partly shown) [Example 42, N-[6-(difluoromethyl)-2-pyridyl]-2-[4-[[[1-[4-(2,6-dioxo-3-piperidyl)phenyl]-3,3-difluoro-4-piperidyl]-methyl-amino]methyl]cyclohexyl]-7-isopropoxy-imidazo[1,2-a]pyridine-6-carboxamide]
10 to 100	CC(C)Oc1cc2nc([C@H]3CC[C@H](CN(C)C4CCN(Cc5ccc6c(c5)n(C)c(=O)n6C5CCC(=O)NC5=O)CC4)CC3)cn2cc1C(=O)Nc1cccc(C(F)F)n1 (stereo partly shown) [Example 43, N-[6-(difluoromethyl)-2-pyridyl]-2-[4-[[[1-[[1-(2,6-dioxo-3-piperidyl)-3-methyl-2-oxo-benzimidazol-5-yl]methyl]-4-piperidyl]-methyl-amino]methyl]cyclohexyl]-7-isopropoxy-imidazo[1,2-a]pyridine-6-carboxamide]
10 to 100	Cc1cn(C2CCC(=O)NC2=O)c2ccc(C3CCN(C[C@H]4CC[C@H](c5cn6cc(C(=O)Nc7cccc(C(F)F)n7)c(OC(C)C)cc6n5)CC4)CC3)cc12 (stereo partly shown) [Example 44, N-[6-(difluoromethyl)-2-pyridyl]-2-[4-[[4-[1-(2,6-dioxo-3-piperidyl)-3-methyl-indol-5-yl]-1-piperidyl]methyl]cyclohexyl]-7-isopropoxy-imidazo[1,2-a]pyridine-6-carboxamide]
100 to 500	CC(C)Oc1cc2nc([C@H]3CC[C@H](CN4CCC(c5ccc(C6(F)CCC(=O)NC6=O)cc5)CC4)CC3)cn2cc1C(=O)Nc1cccc(C(F)F)n1 (stereo partly shown) [Example 45, N-[6-(difluoromethyl)-2-pyridyl]-2-[4-[[4-[4-(3-fluoro-2,6-dioxo-3-piperidyl)phenyl]-1-piperidyl]methyl]cyclohexyl]-7-isopropoxy-imidazo[1,2-a]pyridine-6-carboxamide]
10 to 100	CC(C)Oc1cc2nc([C@H]3CC[C@H](CN4CC5(CCCN5Cc5ccc(OC6CCC(=O)NC6=O)cc5)C4)CC3)cn2cc1C(=O)Nc1cccc(C(F)F)n1 (stereo partly shown) [Example 46, N-[6-(difluoromethyl)-2-pyridyl]-2-[4-[[5-[[4-[(2,6-dioxo-3-piperidyl)oxy]phenyl]methyl]-2,5-diazaspiro[3.4]octan-2-yl]methyl]cyclohexyl]-7-isopropoxy-imidazo[1,2-a]pyridine-6-carboxamide]
< 10	Cc1cnc2c(NC(=O)c3cn4cc([C@H]5CC[C@H](CN6CCC(c7ccc8c(c7)n(C)c(=O)n8C7CCC(=O)NC7=O)CC6)CC5)nc4cc3OC(C)C)cnn2c1 (stereo partly shown) [Example 51, 2-[4-[[4-[1-(2,6-dioxo-3-piperidyl)-3-methyl-2-oxo-benzimidazol-5-yl]-1-piperidyl]methyl]cyclohexyl]-7-isopropoxy-N-(6-methylpyrazolo[1,5-a]pyrimidin-3-yl)imidazo[1,2-a]pyridine-6-carboxamide]
100 to 500	Cc1cnc2c(NC(=O)c3cn4cc([C@H]5CC[C@H](CN6CCC(c7cc(F)c(C8CCC(=O)NC8=O)cc7F)C(F)(F)C6)CC5)nc4cc3OC(C)C)cnn2c1 (stereo partly shown) [Example 54, 2-[4-[[4-[4-(2,6-dioxo-3-piperidyl)-2,5-difluoro-phenyl]-3,3-difluoro-1-piperidyl]methyl]cyclohexyl]-7-isopropoxy-N-(6-methylpyrazolo[1,5-a]pyrimidin-3-yl)imidazo[1,2-a]pyridine-6-carboxamide]
< 10	CC(C)Oc1cc2nn(C3CCN(C(=O)CN4CCC(c5ccc(C6CCC(=O)NC6=O)cc5)CC4)CC3)cc2cc1C(=O)Nc1cnn2cccnc12 (stereo not shown) [Example 56, 2-(1-(2-(4-(4-(2,6-dioxopiperidin-3-yl)phenyl)piperidin-1-yl)acetyl)piperidin-4-yl)-6-isopropoxy-N-(pyrazolo[1,5-a]pyrimidin-3-yl)-2H-indazole-5-carboxamide]
< 10	CC(C)Oc1cc2nn(C3CCN(C(=O)CC4(O)CCN(c5cc(F)c(C6CCC(=O)NC6=O)cc5F)CC4)CC3)cc2cc1C(=O)Nc1cnn2cccnc12 (stereo not shown) [Example 57, 2-(1-(2-(1-(4-(2,6-dioxopiperidin-3-yl)-2,5-difluorophenyl)-4-hydroxypiperidin-4-yl)acetyl)piperidin-4-yl)-6-isopropoxy-N-(pyrazolo[1,5-a]pyrimidin-3-yl)-2H-indazole-5-carboxamide]
10 to 100	CC(C)Oc1cc2nn(C3CCN(C(=O)CC4(O)CCN(c5ccc(NC6CCC(=O)NC6=O)cc5)CC4)CC3)cc2cc1C(=O)Nc1cccc(C(F)(F)F)n1 (stereo not shown) [Example 58, 2-[1-[2-[1-[4-[(2,6-dioxo-3-piperidyl)amino]phenyl]-4-hydroxy-4-piperidyl]acetyl]-4-piperidyl]-6-isopropoxy-N-[6-(trifluoromethyl)-2-pyridyl]indazole-5-carboxamide]
10 to 100	CC(C)Oc1cc2nn(C3CCN(C(=O)CC4(O)CCN(c5ccc(NC6CCC(=O)NC6=O)cc5F)CC4)CC3)cc2cc1C(=O)Nc1cccc(C(F)(F)F)n1 (stereo not shown) [Example 59, 2-[1-[2-[1-[4-[(2,6-dioxo-3-piperidyl)amino]-2-fluoro-phenyl]-4-hydroxy-4-piperidyl]acetyl]-4-piperidyl]-6-isopropoxy-N-[6-(trifluoromethyl)-2-pyridyl]indazole-5-carboxamide]
100 to 500	CC(C)Oc1cc2nn(C3CCN(C(=O)CN4CCC(c5ccc(NC6CCC(=O)NC6=O)cc5)CC4)CC3)cc2cc1C(=O)Nc1cccc(C(F)(F)F)n1 (stereo not shown) [Example 60, 2-(1-(2-(4-(4-((2,6-dioxopiperidin-3-yl)amino)phenyl)piperidin-1-yl)acetyl)piperidin-4-yl)-6-isopropoxy-N-(6-(trifluoromethyl)pyridin-2-yl)-2H-indazole-5-carboxamide]
100 to 500	CC(C)Oc1cc2nn(C3CCN(C(=O)CN4CCC(c5ccc(NC6CCC(=O)NC6=O)cc5F)CC4)CC3)cc2cc1C(=O)Nc1cccc(C(F)(F)F)n1 (stereo not shown) [Example 61, 2-[1-[2-[4-[4-[(2,6-dioxo-3-piperidyl)amino]-2-fluoro-phenyl]-1-piperidyl]acetyl]-4-piperidyl]-6-isopropoxy-N-[6-(trifluoromethyl)-2-pyridyl]indazole-5-carboxamide]
< 10	CC(C)Oc1cc2nn(C3CCN(C(=O)CN4CCC(c5ccc(C6CCC(=O)NC6=O)cc5)CC4)CC3)cc2cc1C(=O)Nc1cccc(C(F)F)n1 (stereo not shown) [Example 62, N-[6-(difluoromethyl)-2-pyridyl]-2-[1-[2-[4-[4-(2,6-dioxo-3-piperidyl)phenyl]-1-piperidyl]acetyl]-4-piperidyl]-6-isopropoxy-indazole-5-carboxamide]
10 to 100	CC(C)Oc1cc2nn(C3CCN(C(=O)CN4CCC(c5ccc(C6CCC(=O)NC6=O)cc5F)CC4)CC3)cc2cc1C(=O)Nc1cccc(C(F)F)n1 (stereo not shown) [Example 63, N-(6-(difluoromethyl)pyridin-2-yl)-2-(1-(2-(4-(4-(2,6-dioxopiperidin-3-yl)-2-fluorophenyl)piperidin-1-yl)acetyl)piperidin-4-yl)-6-isopropoxy-2H-indazole-5-carboxamide]
